Laboratory results from PubChem BioAssay AID248 (DTP/NCI, 2004).
Inconclusive results and toxic doses are left out. No stated cut-off is given here; in the data, active means T/C of 150% or more; inactive means T/C below 125%.

Tested on: L1210 leukemia ip in BDF1 mice, survival T/C
Assay: NCI In Vivo Anticancer Drug Screen. Data for tumor model L1210 Leukemia (intraperitoneal) in B6D2F1 (BDF1) mice
Conditions: endpoint: mean survival time, higher = longer survival
Summary of the method: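 Ratio derived from survival: compound-dosed mice over vehicle-dosed mice, all bearing a transplantable tumor.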

[1] = dose: 100.0 mg/kg/injection, schedule: Q01DX009 (ip), vehicle: saline with Tween-80
[2] = dose: 200.0 mg/kg/injection, schedule: Q01DX009 (ip), vehicle: saline with Tween-80

Measured: T/C

Cc1ccc2c(C)cc(=O)[nH]c2c1
inactive: dose: 100.0 mg/kg/injection, schedule: Q01DX001 (ip), vehicle: carboxymethylcellulose (CMC) 102 % of control | [1] 102 % of control | dose: 200.0 mg/kg/injection, schedule: Q01DX001 (ip), vehicle: carboxymethylcellulose (CMC) 91 % of control | [2] 101 % of control | dose: 400.0 mg/kg/injection, schedule: Q01DX001 (ip), vehicle: carboxymethylcellulose (CMC) 105 % of control | dose: 400.0 mg/kg/injection, schedule: Q01DX009 (ip), vehicle: saline with Tween-80 106 % of control

CC(O)CN(CC(C)O)c1ccccc1 (stereo unspecified)
inactive: [1] 102 % of control | dose: 100.0 mg/kg/injection, schedule: Q04DX003 (ip), vehicle: saline with Tween-80 102 % of control | [2] 94 % of control | dose: 200.0 mg/kg/injection, schedule: Q04DX003 (ip), vehicle: saline with Tween-80 103 % of control | dose: 400.0 mg/kg/injection, schedule: Q04DX003 (ip), vehicle: saline with Tween-80 101 % of control
